Results on 1 substance are retold here after patent publication US20100260680A1, “NOVEL BONE MASS INCREASING AGENT” (ORIENTAL YEAST CO., LTD., priority 2007, published 2010).

Bridges are numbered along the chain shown (N, C = ends). Where no end group is shown, it is not given here.

The subject of assay [1] is Human mesenchymal stem cells. Description: Alizarin red S staining (calcification) of human mesenchymal stem cells. Format: cell-based. Conditions: 300 μM; Day 21; regardless of induction of differentiation. How it is done:
On Day 21 after differentiation, the cells were washed with PBS, followed by fixation with a 10% neutral buffer formalin solution.
The cells were washed with water after removal of the fixative solution. A 1% alizarin red S stain solution (Nacalai) (150 μL) was added thereto. The plate was left at room temperature for 3 minutes. Thereafter, the stain solution was discarded, followed by washing with water and drying. Then, microscopic observation was carried out.
Human mesenchymal stem cells were cultured in the same manner as in Example 1. Peptide D (300 μM) was added to human mesenchymal stem cells.

Another assay has as its system Human osteoblasts. Description: ALP activity determination in human osteoblasts. The format is cell-based. Conditions: antibodies 100 ng/mL or 1 ng/mL; culture for 5 or 6 days. How it is done:
Seven days after differentiation, the culture supernatant was removed from each plate and the cells were fixed with an acetone/ethanol solution. The ALP activity was determined using p-nitrophenyl phosphate as a substrate. Specifically, a carbonate buffer (5 mM MgCl2, 50 mM NaHCO3) containing p-nitrophenyl phosphate (Nacalai) (1 mg/mL) was added to each well (100 μL/well), followed by incubation at 37° C. Then, the OD value at 405 nm was determined with the use of a microplate reader (BMG Labtech) for each well.
The reagents such as anti-RANKL polyclonal antibodies and anti-RANKL monoclonal antibodies used in this Example were the same as those used in Example 4. In addition, an anti-RANKL monoclonal antibody ((C): clone 12A380) (ALEXIS), human OPGFc, and human RANKFc (R&D)) were used. ALP activity determination was carried out as in Example 1. All of the above antibodies are antibodies against mouse RANKL.
Human osteoblasts were seeded on a 96-well plate (3.1×10^3/well) and a 48-well plate (7.65×10^3/well). After cell adhesion had taken place, differentiation was carried out using a medium containing 5 mM β-glycerophosphoric acid. The antibodies were added (100 ng/mL or 1 ng/mL) upon differentiation. Culture was carried out for 5 or 6 days, followed by ALP activity determination.

A further assay relates to C2C12 cells. The assay can be described thus: ALP activity determination in C2C12 cells. The format is cell-based, mouse. The conditions noted are these: 6 days.
For assay [2], the system named is human alkaline phosphatase (hALP) and human type I collagen (hCollagen I). The assay can be described thus: RT-PCR analysis of hALP and hCollagen I in human mesenchymal stem cells. The format is cell-based. How it is done:
Human mesenchymal stem cells (3×10^4 cells) were seeded on a 6-well plate, followed by culture for 7 days in the presence of an osteoblast differentiation medium (Lonza) or a maintenance medium (Lonza). Peptide D (100 μM and 300 μM) was added to each well. Further, a peptide solvent was added to a control group. After culture, the cells were washed with PBS and dissolved in QIAzol Lysis Reagent (QIAGEN) (0.75 mL). Then, the solution was collected. The solution was left at room temperature for 5 minutes. Then, chloroform (Wako) (0.15 mL) was added, the resultant was admixed by turning upside down, and then the resultant was centrifuged under conditions of 4° C. and 12000×g for 15 minutes. The supernatant was collected in a new tube. RNA was isolated from the supernatant with the use of an EZ1 RNA universal tissue kit (QIAGEN) and Magtration System 12GC (QIAGEN). After determination of the RNA concentration, each RNA (250 ng) was subjected to electrophoresis with 1% agarose gel for confirmation of the occurrence or nonoccurrence of RNA degradation. Non-degraded RNAs (500 ng each) were subjected to RT-PCR. RT-PCR was performed using a ThermoScript RT-PCR System (Invitrogen) and random primers. […]
Samples obtained after the PCR reaction were subjected to electrophoresis with 1% agarose gel. […] The obtained images were analyzed with a CSAnalyzer. […]

In the case of “peptide D: cyclic peptide of SEQ ID NO: 7, 9 amino acids, two cysteine residues bound via a disulfide bond; binds to RANKL (YCWSQYLCY; disulfide 2-8 (inferred))”, the “alizarin red staining (calcification)” value in assay [1] was “strong degree of alizarin red staining”. Moreover, the ALP activity entry in the assay with Human osteoblasts is recorded as “significant increase in ALP activity”; in the assay with C2C12 cells (50 μM peptide D alone), “actions of ALP activity enhancement were not observed”. The “increase in the ALP activity relative to BMP-2 alone” value with C2C12 cells (50 μM peptide D combined with 100 ng/mL BMP-2) is “at least 5 times”. Moreover, the “expression levels of alkaline phosphatase and type I collagen” value in assay [2] (100 μM and 300 μM, 7-day differentiation) is listed as “increased in a peptide-concentration-dependent manner”. Also, in assay [2] (300 μM, maintenance medium), the “mRNA expression levels of alkaline phosphatase and type I collagen” value was “caused increases in the mRNA expression levels”.
